Test [1] concerns Male Wistar rats. Description: Test Example 1B: excretion action of urine sugar in rat. The settings on record: oral administration, Dose 10 mg/kg, 24 hours. The class given is in vivo. As for the experimental part: Male Wistar rats aged 5 weeks (purchased from Charles River Japan, Inc.) were acclimatized in metabolic cages for one week, for use at this experiment. The test compounds suspended in olive oil were prepared into solutions to a dose of 5 ml per 1 kg rat body weight. After the rats were starved for 4 hours, the test compounds were orally given at 10, 30 and 100 mg/kg to the rats at 11 am. Immediately after dosing until 24 hours later, urine was collected. The volume of urine was measured. Then, urine glucose concentration was assayed by glucose oxidase method, to calculate the glucose excretion into urine per individual per day. As a positive control, 3-(5-benzo[b]furanyl)-2′-(6-o-methoxycarbonyl-β-D-glucopyranosyloxy)-6′-hydroxy-4′-methylpropiophenone [under a different name of 3-(benzo[b]furan-5-yl)-2′,6′-dihydroxy-4′-methylpropiophenone 2′-o-(6-o-methoxycarbonyl-β-D-glucopyranoside)] was used.

Test [2] has as its system Type 2 diabetes model db/db mice. As to the kind of experiment: Example IV: nateglinide load test after 25 days of dosing in db/db mice. It is filed as in vivo, mouse. The settings on record: db/db mice after long-term inhibitor B 80 mg/kg twice daily; compared with vehicle-dosed and nateglinide-dosed groups. As for the experimental part:
Type 2 diabetes model db/db mice (age 6 weeks) were fed and kept with a feed twice daily over one hour starting 9 am and one hour starting 3 pm, for one week. Then, the mice were divided into groups with matched blood glucose levels and body weights. Subsequently, the inhibitor B of renal glucose reabsorption at 80 mg/kg or nateglinide at 80 mg/kg was orally given, immediately before feeding twice daily. Only a vehicle was orally given immediately before feeding twice daily to the animals of a control group. […] Blood glucose levels were measured before and after the administration, to examine whether or not the hypoglycemic action of nateglinide could be observed (nateglinide load test).

For test [3], the system named is glucose-loaded rats (Wistar rats). Description: Example I: blood glucose time course after oral glucose loading in rats. It is filed as in vivo, rat. The settings on record: glucose 1 g/kg p.o. As for the experimental part:
Wistar rats (age of 7 weeks; male) were divided into groups with matched body weights. After 17-hour starvation, glucose was orally given at 1 g/kg to the animals. Immediately after the administration, the inhibitor A of renal glucose reabsorption or the inhibitor B of renal glucose reabsorption (A at 30 mg/kg or 60 mg/kg; B at 30 mg/kg or 80 mg/kg) or glibenclamide (1 mg/kg or 2 mg/kg) or nateglinide (50 mg/kg or 80 mg/kg) was orally given. Additionally, a group on the combined use of both of an inhibitor of renal glucose reabsorption and a hypoglycemic agent was also prepared. A vehicle was orally given to a control group after glucose administration.
Blood glucose was measured in a time course.

The test system of test [4] is Type 2 diabetes model Zucker diabetic fatty rats. Description: Example V: insulin content in pancreas of Zucker diabetic fatty rats (ELISA). The class given is in vivo, rat. The note with it: twice daily p.o., day 39, starved 18 h, inhibitor A 30 mg/kg and/or metformin 200 mg/kg, FIG. 5. The procedure:
Type 2 diabetes model Zucker diabetic fatty rats (age 15 weeks) were divided into groups with matched blood glucose levels and body weights. Subsequently, the inhibitor A of renal glucose reabsorption at 30 mg/kg or metformin at 200 mg/kg was orally given twice daily. Further, a group to be on a combined use of the inhibitor A of renal glucose reabsorption (30 mg/kg) and metformin (200 mg/kg) was prepared. The agents were orally given twice daily at the same time period as in the case of the groups administered with a single one of these agents. Only a vehicle was orally given twice daily to the animals in a control group. On day 39 from the start of administration, the animals were starved for 18 hours. Then, pancreas was resected from the animals, for the assay of insulin in pancreas homogenates by ELISA, to compare the groups in terms of insulin content in pancreas.
Zucker diabetic fatty rat is a type 2 diabetic model animal, where the sustainment of hyperglycemic conditions induces a high concentration of glycated hemoglobin so that the aging of the model animal involves the decrease of the insulin content in pancreas.

Test [5] deals with Type 2 diabetic model GK rats. Description: Example III: blood glucose on day 25 of once daily dosing in GK rats. The note with it: once daily p.o., glibenclamide 3 mg/kg and/or inhibitor A 30 mg/kg, FIG. 4. The class given is in vivo, rat. As for the experimental part: Type 2 diabetic model GK rats (age of 7 weeks; male) were divided into groups with matched blood glucose levels and body weights, for once daily oral administration of the inhibitor A of renal glucose reabsorption (30 mg/kg) or glibenclamide at 3 or 6 mg/kg. Further, a group given with a combination of the inhibitor A of renal glucose reabsorption at 30 mg/kg and glibenclamide at 3 mg/kg was prepared. These agents were orally given once daily at the same time period as in the group administered with a single one agent. Only a vehicle was given orally to a control group. On day 25 after the start of administration, blood glucose was assayed sequentially, to compare the groups in terms of the resulting blood glucose levels.

The test system of test [6] is glucose-loaded mice (KK mice). Description: Example II: blood glucose time course after oral glucose loading in KK mice. The class given is in vivo, mouse. The settings on record: glucose 1 g/kg p.o., FIG. 3. The procedure: KK mice (age of 25 weeks; male) fed with a commercially available high-calories feed for breeding (CMF; Oriental Yeast) were divided into groups with matched body weights. After starvation for 17 hours, glucose was orally given at 1 g/kg. Immediately thereafter, the inhibitor A of renal glucose reabsorption (30 mg/kg or 45 mg/kg) or metformin (200 mg/kg or 300 mg/kg) was orally given. Additionally, a group given with the inhibitor A of renal glucose reabsorption (30 mg/kg) and metformin (200 mg/kg) was prepared. A vehicle was orally given to a control group after glucose dosing.
Blood glucose level was assayed in a time course.

Test [7] deals with Renal brush border membrane. Description: Test Example 1A: inhibitory action of 14C-D-glucose uptake. It is filed as biochemical. The settings on record: rat renal brush border membrane, 37° C., 30 minutes preincubation. As for the experimental part: Test compounds were dissolved in 100 mM mannitol-10 mM HEPES/Tris, pH 7.4 to prepare solutions at various concentrations.
Renal brush border membrane was prepared from a rat kidney, to which a solution of a test compound was added for incubation at 37° C. for 30 minutes. Then, ^14C-D-glucose was added for incubation for one minute. A solution containing 1 mM phlorizin was used to terminate the glucose uptake reaction. The radioactivity ^14C of ^14C-D-glucose incorporated in the renal brush border membrane was counted with a liquid scintillation counter. The glucose uptake independent on sodium was reduced from the glucose uptake in a control group or a test group, to calculate the inhibition intensity.

Test [8] concerns Male Wistar rats. Description: Test Example 1: evaluation of urine sugar excretion action in rats. The class given is in vivo, rat. The note with it: 100 mg/kg p.o. in olive oil, urine collected 24 hours, per individual per day. The procedure:
Male Wistar rats aged 5 weeks (purchased from Charles River Japan, Inc.) were acclimatized in metabolic cages for one week, for use at this experiment. The test compounds suspended in olive oil were prepared into a 20 mg/ml solution to a dose of 5 ml per 1 kg rat body weight.
After the rats were starved for 4 hours, the test compounds were orally given at 100 mg/kg to the rats at 11 am. Immediately after dosing until 24 hours later, urine was collected. The volume of urine was measured. Then, urine sugar concentration was assayed by glucose oxidase method, to calculate the glucose excretion into urine per individual per day.

Where [9] appears, read: metformin 200 mg/kg, inhibitor A 30 mg/kg p.o., vs control.

This is an account of results in patent publication US7956041B2, “Prophylactic and therapeutic agent of diabetes mellitus” (Ajinomoto Co., Inc., priority 2002, dated 2011).

Turning to `COC(=O)OC[C@H]1O[C@@H](Oc2cc(C)cc(O)c2C(=O)CCc2ccc3occc3c2)[C@H](O)[C@@H](O)[C@@H]1O` [3-(5-benzo[b]furanyl)-2′-(6-o-methoxycarbonyl-β-D-glucopyranosyloxy)-6′-hydroxy-4′-methylpropiophenone], the Excreted urine sugar in the test on Male Wistar rats [1] came to 2 mg. For the same compound, the “Hyperglycemia 30 minutes after loading with glucose and nateglinide (in words)” value in test [2] was “nateglinide greatly suppressed hyperglycemia due to glucose loading”. Also, the “Blood glucose 180 minutes after glucose loading and thereafter” value in test [3] (inhibitor B 30 mg/kg alone or with nateglinide 50 mg/kg p.o., vs vehicle, FIG. 2) is recorded as “lower than that in the vehicle-dosed group”. Further, the “Pattern of glycemic suppression at increased dose” value in test [3] (nateglinide 80 mg/kg, inhibitor B 80 mg/kg, FIG. 2) is “This pattern of glycemic suppression was also observed in the group with the increase of the dose”.

In the case of `CCc1ccc(Cc2c(O[C@@H]3O[C@H](CO)[C@@H](O)[C@H](O)[C@H]3O)nn(C3CCC3)c2C(F)(F)F)cc1` [1′-cyclobutyl-4′-[(4-ethylphenyl)methyl]-5′-trifluoromethyl-1H-pyrazole-3′-o-β-D-glucopyranoside], the “Insulin content in pancreas” value in test [4] is “no difference was observed in insulin content in spleen”. The “Blood glucose level on day 25” value in test [5] is given as “significantly lowered, compared with the group given the vehicle”. In test [6] (setting [9]), the “Blood glucose 30 minutes after glucose loading” value was “could suppress hyperglycemia 30 minutes and 60 minutes after glucose loading”; the “Blood glucose 60 minutes after glucose loading” value is “could suppress hyperglycemia 30 minutes and 60 minutes after glucose loading”; the “Blood glucose 2 hours after glucose loading and thereafter” value was “could not suppress the blood glucose level 2 hours later and thereafter”. Besides, the “Pattern of glycemic suppression at elevated dose” value in test [6] (metformin 300 mg/kg, inhibitor A 45 mg/kg) is “the pattern of glycemic suppression did not change even when the dose was elevated”. For the same compound, the “Blood glucose immediately after glucose loading (30 minutes)” value in test [3] (glibenclamide 1 mg/kg and/or inhibitor A 30 mg/kg p.o., vs vehicle, FIG. 1) is given as “suppressed hyperglycemia observed in the vehicle group immediately after glucose loading”. For the same compound, the “Pattern of glycemic suppression at increased dose” value in test [3] (glibenclamide 2 mg/kg, inhibitor A 60 mg/kg, FIG. 1) is “The pattern of glycemic suppression did not change even when the dose was elevated”.

In the case of `CCc1ccc(Cc2c(O[C@@H]3O[C@H](C(=O)O)[C@@H](O)[C@H](O)[C@H]3O)n[nH]c2C(F)(F)F)cc1` [Production Example 2-A, 4-((4-ethylphenyl)methyl)-5-(trifluoromethyl)-1H-pyrazol-3-yl-β-D-glucopyranoside uronic acid], the Inhibition intensity in test [7] (concentration of test compound 100 μM) was 30% (100 μM).

Turning to `CCc1ccc(Cc2c(OC3OC(COC(=O)OC)C(O)C(O)C3O)nn(C3CCCC3)c2C(F)(F)F)cc1` [Production Example 4, 1′-cyclopentyl-4′-[(4-ethylphenyl)methyl]-5′-trifluoromethyl-1H-pyrazole-3′-o-(6-carbomethoxy)-β-D-glucopyranoside], the Urine sugar excretion in the test with Male Wistar rats [8] is given as 452 mg.

For the compound `CSc1ccc(Cc2c(O[C@@H]3O[C@H](CO)[C@@H](O)[C@H](O)[C@H]3O)n[nH]c2C(F)(F)F)cc1` [Production Example 1-A, 4-((4-methylthiophenyl)methyl)-5-(trifluoromethyl)-1H-pyrazole-3-o-β-D-glucopyranoside], in test [7] (concentration of test compound 10 μM), the Inhibition intensity is given as 84% (10 μM).

In the test on Male Wistar rats [8], `CCc1ccc(Cc2c(OC3OC(COC(=O)OC)C(O)C(O)C3O)nn(C3CCC3)c2C(F)(F)F)cc1` [Production Example 2, 1′-cyclobutyl-4′-[(4-ethylphenyl)methyl]-5′-trifluoromethyl-1H-pyrazole-3′-o-(6-carbomethoxy)-β-D-glucopyranoside] registered a Urine sugar excretion of 656 mg.
